From paper PMC8708704, “Discovery of New Chemical Tools against Leishmania amazonensis via the MMV Pathogen Box” (Pharmaceuticals, 2021)

Test system: Leishmania amazonensis promastigotes
Assay: Leishmanicidal activity against promastigotes (alamarBlue assay; screening at 10 µM and IC50)
Assay type: cell-based
Conditions: first screening, 10 µM, 72 h
Method: For the experiments, promastigotes of Leishmania amazonensis strain (MHOM/BR/77/LTB0016) were used; they were maintained in RPMI 1640 medium (Gibco, Massachusetts, USA) at 26 °C. […] Subsequently, the plates were analyzed on an EnSpire multimode plate reader (PerkinElmer, MA, USA) to measure their fluorescence after 72 h. […] To this end, serial dilutions were performed in 96 well plates, and incubated with the parasites for 72 h after adding alamarBlue®. Next, the plates were analyzed on the EnSpire plate reader and the IC50 values were calculated by using SigmaPlot 14.0 (Systat Software Inc., Chicago, IL, USA). Each concentration was tested in duplicate and in three independent experiments for all the compounds.

| Structure (SMILES) | % of inhibition at 10 µM (against L. amazonensis promastigotes) [%] |
| --- | --- |
| O[C@@H](c1cc(C(F)(F)F)nc2c(C(F)(F)F)cccc12)[C@H]1CCCCN1 [MMV000016, reference compound] | 86 |
| N=C(N)c1ccc(OCCCCCOc2ccc(C(=N)N)cc2)cc1 [MMV000062, reference compound] | 89 |
| CN(C)c1cc(NC(=O)Nc2ccccc2)c2ccccc2n1 [MMV006901] | 85 |
| Cc1ccc(NC(=O)c2nc[nH]c2C(=O)Nc2nc3ccccc3[nH]2)c(C)c1 [MMV011903] | 86 |
| Cc1cc(NCCc2ccccc2)nc(NC(=N)Nc2ccc(Cl)cc2)n1 [MMV021660] | 87 |
| Cc1ccc(S(=O)(=O)n2cc(-c3ccnc(N)c3)c3cc(Br)cnc32)cc1 [MMV024114] | 92 |
| O=C(Nc1cccc(Cl)c1)c1cnc(N2CCN(c3ccncc3)CC2)c(Cl)c1 [MMV024406] | 92 |
| CCOC(=O)c1c(NC(=O)c2c(F)c(F)c(F)c(F)c2F)sc(C(N)=O)c1C [MMV153413] | 86 |
| COc1cccc(-n2nnnc2S(C)(=O)=O)c1 [MMV272144] | 89 |
| COC(=O)c1c(NC(=O)c2c(F)c(F)c(F)c(F)c2F)sc2c1CCCCC2 [MMV461553] | 88 |
| Cc1nc(-c2ccccn2)nc(N2CCC(Cc3ccccc3)C2)c1Cl (stereo not shown) [MMV659004] | 87 |
| Brc1cncc(-c2cc(NCCCn3ccnc3)nc(-c3ccccc3)n2)c1 [MMV661713] | 84 |
| Cc1[nH]c2cc(F)cc(F)c2c(=O)c1-c1ccc(Oc2ccc(OC(F)(F)F)cc2)cc1 [MMV671636] | 66 |
| CCC(Sc1nc2ccccc2o1)C(=O)Nc1nccs1 (stereo not shown) [MMV676383] | 83 |
| c1coc(CNc2nc(N3CCCCC3)nc3ccccc23)c1 [MMV676401] | 84 |
| N#Cc1nc(-c2ccccc2)oc1S(=O)(=O)c1ccc(Cl)cc1 [MMV676412] | 93 |
| CCc1c(C)nc(-n2nc(C)cc2NC(=O)c2ccccc2SC)[nH]c1=O [MMV676477] | 92 |
| Cc1ccc2oc(-c3cc(NC(=O)Cc4ccccc4)ccc3Cl)nc2c1 [MMV676509] | 80 |
| Cc1ncc(-c2ccnc(Nc3ccc(S(C)(=O)=O)cc3)n2)n1C(C)C [MMV676604] | 66 |
| CC1(O)CC(c2nc(-c3ccc4ccc(-c5ccccc5)nc4c3)c3c(N)nccn23)C1 (stereo not shown) [MMV676605] | 53 |
| CC(C)=CCC/C(C)=C\CNCCNC1C2CC3CC(C2)CC1C3 (stereo not shown) [MMV687273] | 89 |
| COc1cccc(-c2nc3c(N4CCCC4)cccc3n2CC2CCCN2)n1 (stereo not shown) [MMV687703] | 85 |
| CCCCOC(=O)Nc1cc2[nH]c(C3CCCCC3)nc2cc1N1CCCC1 [MMV687730] | 87 |

| Structure (SMILES) | % of inhibition at 10 µM (against L. amazonensis promastigotes) [%] |
| --- | --- |
| Cc1cnc(N2CCN[C@@H](Cc3ccccc3)C2)nc1Oc1ccc(-n2ccnc2)cc1 [MMV687765] | 82 |
| Cc1cc(C2=NOC(c3cc(Cl)c(F)c(Cl)c3)(C(F)(F)F)C2)ccc1C(=O)NCc1ccc2c(c1)C(C)(C)OB2O (stereo not shown) [MMV687776] | 52 |
| CC(C)N=c1cc2n(-c3ccc(Cl)cc3)c3ccccc3nc-2cc1Nc1ccc(Cl)cc1 [MMV687800, reference compound] | 88 |
| O=C(Nc1ccc(C(F)(F)F)c(C(F)(F)F)c1)c1cc(Cl)ccc1O [MMV687807] | 90 |
| NC(N)=Nc1ccc(-c2ccc(-c3ccc(N=C(N)N)cc3Cl)o2)c(Cl)c1 [MMV688179] | 86 |
| C[C@]1(COc2ccc(N3CCC(Oc4ccc(OC(F)(F)F)cc4)CC3)cc2)Cn2cc([N+](=O)[O-])nc2O1 [MMV688262] | 86 |
| Nc1ccc2ncnc(Nc3ccc(OCc4cccc(F)c4)c(Cl)c3)c2c1 [MMV688273] | 79 |
| CN1CCN(S(=O)(=O)c2ccc(-c3ccc4c(Nc5ncc(Cl)cn5)ccnc4c3)cc2)CC1 [MMV688283] | 85 |
| NCCN(C(=O)c1ccc(Cl)cc1Cl)c1ccc(OCc2ccc(Cl)cc2)cc1 [MMV688371] | 89 |
| O=C(Nc1ccc(F)c(-c2nc3ncc(-c4ccccc4)cc3[nH]2)c1)N1CCCC1 [MMV688372] | 87 |
| CC(C)n1nc(-c2cc3c(Cl)cccc3[nH]2)c2c(N)ncnc21 [MMV688417] | 87 |
| CO/N=C(/C(=O)OC)c1ccccc1CO/N=C(/C)c1cccc(C(F)(F)F)c1 [MMV688754] | 76 |
| CS(=O)(=O)c1ccc(C(=O)N(CC2CCCO2)c2nc3ccccc3s2)cc1[N+](=O)[O-] (stereo not shown) [MMV688761] | 88 |
| CNc1nnc(Sc2cnn(-c3ccccc3)c(=O)c2Cl)s1 [MMV688763] | 86 |
| Cc1[nH]c2ccccc2c1C(c1cccs1)N1CCN(C)CC1 (stereo not shown) [MMV688768] | 86 |
| COc1ccc2nccc(NC(=O)C3CCN(CCc4ccc(Cl)cc4)CC3)c2n1 [MMV688844] | 80 |
| O=C(c1ccco1)N(CCCn1ccnc1)c1nc2c(Cl)cccc2s1 [MMV688936] | 90 |
| CCOc1ccc(-c2nc(CNCCc3ccc(F)cc3)cs2)cc1 [MMV688938] | 85 |
| CC(=O)OC[C@H]1O[C@@H]([S-])[C@H](OC(C)=O)[C@@H](OC(C)=O)[C@@H]1OC(C)=O.CC[PH+](CC)CC.[Au] [MMV688978, reference compound] | 90 |
| CC(c1cc(Cl)cc(Cl)c1)N(C)c1ncc2c(N)nc(N)nc2n1 (stereo not shown) [MMV689437] | 89 |
| COc1nc2ccc(Br)cc2cc1[C@@H](c1ccccc1)[C@@](O)(CCN(C)C)c1cccc2ccccc12 [MMV689758, reference compound] | 90 |
| COc1ccc(Oc2ccc([C@@H](C)N(C)c3ncc4c(N)nc(N)nc4n3)cc2)cc1 [MMV690102] | 89 |
| Cc1ccc(-c2nc(CN(Cc3ccccn3)C(C)C)cs2)o1 [MMV1088520] | 89 |
